Experiments:
H1299 NSCLC tumors = H1299 NSCLC tumors in mice, effect on TME; format: in vivo
Description: Mice bearing H1299 NSCLC tumors were administered bevacizumab (an anti-angiogenic antibody) (5 mg/kg twice weekly IP for four weeks) alone or in combination with IMPRIME PGG (1.2 mg/mouse twice weekly IV for four weeks) as described above for the other mouse studies. […] Increased iNOS and decreased Arginase 1 are markers indicating an M1, immunostimulatory environment.
In addition, at day 20, post tumor injection, spleens were harvested and single cell suspensions were stained with mouse antibodies and analyzed by FACS. GMFI or frequency was calculated in Flowjo after gating on CD11b+F4/80+CD68+ cells (FIG. 17D-FIG. 17F). FIG. 17D and FIG. 17E show an increase in iNOS and a decrease of Arginase-1, respectively. Spleen cells were also stimulated overnight with 100 ng/ml lipopolysaccharide (LPS) and analyzed for TNF-α production. […] As shown, Arginase-1 decreased and iNOS and CD86 increased, which indicates differentiation of splenic MDSC to M1/N1 macrophage/neutrophils with IMPRIME PGG treatment.
For FIG. 17K-FIG. 17M, tumors were harvested at day 20 and digested with type I collagenase for 1 hour at 37° C. Single cell suspensions were stained with mouse antibodies and analyzed by FACS. GMFI or frequency was calculated in Flowjo after gating on CD11b+ cells. As shown, PD-L1 and iNOS increased while Arginase-1 decreased indicating the shift in tumor-infiltrating myeloid cells to a M1-type phenotype.
Lastly, single cell suspensions of the tumor cells were cultured overnight and supernatants were measured for TGF-β by ELISA.

Monocytes = test: Binding of β-glucan to monocytes in whole blood (serum cross-over); format: cell-based, human; conditions: low binder's whole blood with high binder's serum (higher ABA)
Description: To test this, M2 macrophages were prepared as described above with a few modifications. The whole blood of a low binder was spun down to remove the plasma and then the cells were reconstituted with serum obtained from a high binder. The reconstituted blood was treated with vehicle or β-glucan (25 μg/mL) for 2 hours at 37° C. The monocytes were evaluated for binding by using anti-β-glucan specific monoclonal antibody and subsequent flow cytometry.

IL-4 = IL-4 in supernatants of macrophage and CD4 T cell co-cultures; format: cell-based, human; conditions: M2 macrophage and CD4 T cell co-cultures
Description: CD14^+ monocytes from human whole blood were enriched using Ficoll gradient and magnetic bead separation. Enriched monocytes (5×10^5 cells per mL) were then cultured in either M1-polarizing (XVivo 10 media (Lonza Group) supplemented with 5% autologous serum and 100 ng/mL recombinant human granulocyte macrophage colony-stimulating factor (rhGM-CSF) (R&D Systems) or M2-polarizing (XVivo 10 media supplemented with 10% autologous serum and 50 ng/mL recombinant human macrophage colony-stimulating factor (rhM-CSF) (R&D Systems) conditions for 6 days. In experiments performed to evaluate the effect of β-glucan, whole blood was first incubated with vehicle (sodium citrate buffer) or 25 μg/mL soluble β-glucan for 2 hours at 37° C. and then the monocytes were isolated and differentiated. Morphology was checked before macrophages were harvested for phenotypic analysis. […] T cell proliferation was measured at the end of the experiment (day 9-day 11) by flow cytometry, and results are graphically shown as CFSE-dilution peaks. […] Quantitative results were reported as the Division Index (the average number of cell divisions a population underwent) calculated for each of the triplicate wells in each of the culture conditions. […]
Modulation of IFN-γ and IL-4 production of vehicle- and β-glucan-treated M2 macrophages was then evaluated. […]

M2 macrophages = test: Mac-CD4 T co-culture, surface marker modulation on macrophages; format: cell-based, human; conditions: relative to vehicle-treated M2 macrophages
Description: For evaluation of Mac-CD4 T cell surface marker modulation, M2 macrophages were co-cultured with T cells as described above and cells were harvested on day 8, day 9 and day 10 to perform surface receptor staining on both M2 macrophages and T cells.
Changes in surface marker expression on both macrophages and CD3 & CD28-stimulated T cells were also measured. Vehicle- and β-glucan-treated M2 macrophages and CD T cells from the co-cultures were evaluated by flow cytometry for the modulation of co-stimulatory or co-inhibitory molecules. FIG. 8C and Table 9 are representative results from 2 different experiments.

Tregs = test: Treg suppression assay; format: cell-based, human
Description: Since these PBMC cultures contain Tregs, the suppressive ability of Tregs seem to be altered in the presence of soluble β-glucan and studies were carried out to determine if β-glucan affected Treg suppression. Plasma from β-glucan-treated or vehicle-treated whole blood (described above) was added to 25,000 isolated CFSE-labeled autologous CD4 T cells (CD4^+CD25^−) along with increasing numbers of isolated autologous Tregs (CD4^+CD25^+) resulting in wells with increasing ratios. Cells were then stimulated with 50,000 T cell activating CD3/28 beads for 3 days. Proliferation was subsequently measured by CFSE dilution and quantified by Division Index, which was used to calculate the % suppression of Tregs in the co-culture. % suppression=100-(Division Index of Treg well/Division Index of 1:0 well)[…].
The Treg suppression assay was conducted as described above, and after 3 days of co-culture, supernatants were analyzed for IFN-gamma production.

[1] = spleen, day 20, CD11b+F4/80+CD68+ cells

β(1,6)-[poly-(1,3)-D-glucopyranosyl]-poly-β(1,3)-D-glucopyranose [β-glucan]
TNF-α production (H1299 NSCLC tumors; spleen cells stimulated overnight with 100 ng/ml LPS): increase | Arginase-1 (H1299 NSCLC tumors; spleen, CD11b+Gr1+ cells): decreased | CD86 (H1299 NSCLC tumors; spleen, CD11b+Gr1+ cells): increased | iNOS (H1299 NSCLC tumors; spleen, CD11b+Gr1+ cells): increased | Arginase-1 (H1299 NSCLC tumors; [1]): decrease | iNOS (H1299 NSCLC tumors; [1]): increase | expression of co-stimulatory marker CD86 (H1299 NSCLC tumors; tumor granulocytic MDSC (CD11b+Lyg6+)): enhanced expression | binding of β-glucan to monocytes (Monocytes): significantly higher binding | production of IL-4 (IL-4): no change | Change in MFI on Macrophages: 4-1BBL (M2 macrophages): No change | Change in MFI on Macrophages: CD40 (M2 macrophages): No change | Change in MFI on Macrophages: CD80 (M2 macrophages): No change | Change in MFI on Macrophages: CD172 (M2 macrophages): No change | Change in MFI on Macrophages: CD209 (M2 macrophages): No change | Change in MFI on Macrophages: OX40 (M2 macrophages): No change | Change in MFI on Macrophages: HLA-DR (M2 macrophages; co-culture with CD3 & CD28-stimulated T cells): No change | Change in MFI on Macrophages: CD86 (M2 macrophages; day 8): relative increase | Change in MFI on Macrophages: PD-L1 (CD274) (M2 macrophages; day 9): relative increase | IFN-gamma production (Tregs; Treg suppression assay, 3 days, 8:1 T cell to Treg ratio): enhanced IFN-gamma production | suppressive capacity of Tregs (Tregs; plasma from β-glucan-treated vs vehicle-treated whole blood): significant decreases
